Test system: PKC
Assay: PKC activity in mononuclear cells of STZ-induced diabetic rats after treatment
Assay type: in vivo, rat
Conditions: male Sprague-Dawley rats, STZ-induced diabetes (56% increase vs control), insulin pellet inserted subcutaneously, after 2 weeks
Procedure: Monocytes of rats and also human control subjects and patients with diabetes were isolated from blood with anticoagulant of sodium citrate. The blood sample was put onto the same volume of Histopaque-1077 (Sigma) and centrifuged at 400×g for 30 minutes at room temperature. The layer containing mononuclear cells was transferred to a new tube and washed with phosphate-buffered saline (PBS). After centrifugation at 400×g for 10 minutes, cell pellet was suspended with a solution of 144 mM NH4Cl and 17 mM Tris-HCl, pH 7.65 to lyse the contaminated red blood cells. Mononuclear cells were washed with PBS and used in this study.
Mononuclear cells of human and rats and retina of rats were suspended in a buffer containing 137 mM NaCl, 4.3 mM KCl, […] Na2HPO4, 0.4 mM KH2PO4, 5.5 mM D-Glucose, 10 mM MgCl2, 1 mM CaCl2, 25 mM β-glycerophosphate, and 20 mM HEPES, pH 7.2. […] The paper was put into a scientillation vial and radioactivity of ^32p was assayed by scientillation counter. The paper was put into a scintillation vial and radioactivity of ^32p incorporated into substrate peptide per minute per mg of protein, and calculated by the difference between the activity in the presence of substrate peptide and the activity in the absence of the peptide.
Male Sprague-Dawley rats at the age of 6 weeks were used in this study. […] PKC activity in these tissues was measured as described below.

insulin
PKC activity in rat mononuclear cells: restored to the level of control rats

Reference: patent US6811993B2, “Diagnostic and screening methods based on monocyte PKC activity” (Joslin Diabetes Center, Inc., priority 2000, dated 2004)
